From patent publication US7015306B2 (BioSynthema, Inc., priority 1999, dated 2006)
Where a SMILES comes first, the peptide text is derived from it. [ ]: non-standard residue; d: D form. The star is where a group is joined. ξ: configuration not given here. Abu(1-amidino-4-piperidyl) = N=C(N)N1CCC(CC[C@H](N)C(=O)O)CC1; DTPA = O=C(O)CN(CCN(CC(=O)O)CC(=O)O)CCN(CC(=O)O)CC(=O)*; ξGly(4-Pip(1-amidino)) = N=C(N)N1CCC(C(N)C(=O)O)CC1; ξGly(piperidin-4-yl) = NC(C(=O)O)C1CCNCC1; mTyr = N[C@@H](Cc1cccc(O)c1)C(=O)O; Ala(cPr) = N[C@@H](CC1CC1)C(=O)O; Cha = N[C@@H](CC1CCCCC1)C(=O)O; Tle = CC(C)(C)[C@H](N)C(=O)O; Aba(Apy) = not defined here; dPip = O=C(O)[C@H]1CCCCN1; Aze = O=C(O)[C@@H]1CCN1

Columns and labels:
neurotensin receptors = neurotensin receptors (Homo sapiens, UniProt P30989); experiment: Competitive binding assay on frozen tissue sections of receptor-positive human tumors vs radioiodinated native neurotensin
Source text: Frozen tissue sections from receptor-positive human tumors were used in a competitive binding assay.

[1] = In vitro serum stability assay (HPLC) of In-111 labeled peptide; format: in vitro ADME, human; details: human serum; for remaining at 4 h: t = 4 h, read-out: HPLC Evaluation of Serum Stability at 37EC, Serum, t = 4 h
Method: (§1) All reagents were purchased from Sigma unless otherwise noted. The peptide and ^111InCl3 in 0.05 N HCl were incubated in a sodium acetate/ascorbic acid buffer for 30 minutes at room temperature. The reaction was diluted with 5% ethanol/95% PBS before using in subsequent in vitro assays.
(§2) Human serum was purchased from Sigma (H 1388). The labeled peptide was incubated in either human serum or rat urine at 37EC for the specified amount of time. An aliquot was filtered through a 0.45 μm syringe filter prior to HPLC injection.

[2] = In vitro urine stability assay (HPLC) of In-111 labeled peptide; format: in vitro ADME; details: for remaining at 4 h: rat, t = 4 h
Method: as §1, §2

[3] = 37EC, read-out: HPLC Evaluation of Urine Stability at 37EC, Urine, t = 4 h

Chain of neurotensin receptors (P30989 whole entry): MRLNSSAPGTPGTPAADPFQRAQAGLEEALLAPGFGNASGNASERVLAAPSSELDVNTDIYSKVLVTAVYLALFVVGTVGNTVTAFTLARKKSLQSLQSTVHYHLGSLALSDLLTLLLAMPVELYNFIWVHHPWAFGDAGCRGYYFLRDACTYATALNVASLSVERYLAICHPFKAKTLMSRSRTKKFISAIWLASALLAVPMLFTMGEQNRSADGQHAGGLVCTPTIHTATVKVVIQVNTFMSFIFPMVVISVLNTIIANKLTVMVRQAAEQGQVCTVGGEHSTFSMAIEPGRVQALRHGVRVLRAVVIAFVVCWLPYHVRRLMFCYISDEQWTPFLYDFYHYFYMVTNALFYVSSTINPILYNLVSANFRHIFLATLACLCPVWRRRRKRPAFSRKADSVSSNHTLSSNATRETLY

| Compound | % of peptide at 4 hours after incubation at 37EC, Serum ([1]; 37EC, 4 hours) | % of peptide at 4 hours after incubation at 37EC, Urine ([2]; rat urine, 37EC, 4 hours) | Kd (neurotensin receptors; Table 3) | also measured |
| --- | --- | --- | --- | --- |
| CC[C@H](C)[C@H](NC(=O)[C@H](Cc1ccc(O)cc1)NC(=O)[C@@H]1CCCN1C(=O)[C@H](CCCNC(=N)N)NC(=O)C(Cc1ccc(NC(=N)N)cc1)NC(=O)[C@@H]1CCCN1C(=O)[C@@H](CCCCN)NC(=O)CN(CCN(CCN(CC(=O)O)CC(=O)O)CC(=O)O)CC(=O)O)C(=O)N[C@@H](CC(C)C)C(=O)O (stereo partly drawn) [Compound I, DTPA-DLys-Pro-(4-Gu)Phe-Arg-Pro-Tyr-Ile-Leu-OH] | 14.1% | 1.5% | – | Kd (neurotensin receptors; Table 1): 8.6 nM; % of compound present at 4 hours in serum ([1]; 37EC, 4 hours): 14.1%; % of compound present at 4 hours in urine ([2]; rat urine, 37EC, 4 hours): 1.5% |
| CC(C)C[C@H](NC(=O)[C@@H](NC(=O)[C@H](Cc1ccc(O)cc1)NC(=O)[C@@H]1CCCN1C(=O)[C@H](CCCNC(=N)N)NC(=O)C(NC(=O)[C@@H]1CCCN1C(=O)C(NC(=O)CN(CCN(CCN(CC(=O)O)CC(=O)O)CC(=O)O)CC(=O)O)C1CCNCC1)C1CCN(C(=N)N)CC1)C(C)(C)C)C(=O)O (stereo partly drawn) [Compound XI, DTPA-PipGly-Pro-Gly(PipAm)-Arg-Pro-Tyr-tBuGly-Leu-OH] ({DTPA}-[ξGly(piperidin-4-yl)]P[ξGly(4-Pip(1-amidino))]RPY[Tle]L-OH) | 95.9% | 93.6% | 3.9 nM | – |
| CC(C)(C)[C@H](NC(=O)[C@H](Cc1ccc(O)cc1)NC(=O)[C@@H]1CCCN1C(=O)[C@H](CCCNC(=N)N)NC(=O)C(NC(=O)[C@@H]1CCCN1C(=O)[C@@H](CCCCN)NC(=O)CN(CCN(CCN(CC(=O)O)CC(=O)O)CC(=O)O)CC(=O)O)C1CCN(C(=N)N)CC1)C(=O)N[C@@H](CC1CCCCC1)C(=O)O (stereo partly drawn) [DTPA-DLys-Pro-Gly(PipAm)-Arg-Pro-Tyr-tBuGly-Cha-OH] ({DTPA}-[dK]P[ξGly(4-Pip(1-amidino))]RPY[Tle][Cha]-OH) | 81.2% | 65.9% | 12 nM | – |
| CC(C)C[C@H](NC(=O)[C@@H](NC(=O)[C@H](Cc1ccc(O)cc1)NC(=O)[C@H]1CCCCN1C(=O)[C@H](CCCNC(=N)N)NC(=O)C(NC(=O)[C@@H]1CCCN1C(=O)[C@@H](CCCCN)NC(=O)CN(CCN(CCN(CC(=O)O)CC(=O)O)CC(=O)O)CC(=O)O)C1CCN(C(=N)N)CC1)C(C)(C)C)C(=O)O (stereo partly drawn) [DTPA-DLys-Pro-Gly(PipAm)-Arg-DPipCA-Tyr-tBuGly-Leu-OH] ({DTPA}-[dK]P[ξGly(4-Pip(1-amidino))]R[dPip]Y[Tle]L-OH) | 96.2% | 91.9% | > 1000 nM | – |
| CC(C)C[C@H](NC(=O)[C@@H](NC(=O)[C@H](Cc1ccc(O)cc1)NC(=O)[C@@H]1CCCN1C(=O)[C@H](CCCNC(=N)N)NC(=O)C(NC(=O)[C@@H]1CCCN1C(=O)[C@@H](CCCCN)NC(=O)CN(CCN(CCN(CC(=O)O)CC(=O)O)CC(=O)O)CC(=O)O)C1CCN(C(=N)N)CC1)C(C)(C)C)C(=O)O (single isomer, unassigned) [Compound X, DTPA-DLys-Pro-Gly(PipAm)-Arg-Pro-Tyr-tBuGly-Leu-OH] | 87.5% | 63.0% | 3.5 nM | IC50 (neurotensin receptors; C-terminus modified derivatives): 3.5 nM |
| CC(C)C[C@H](NC(=O)[C@@H](NC(=O)[C@H](Cc1ccc(O)cc1)NC(=O)[C@@H]1CCCN1C(=O)[C@H](CCCNC(=N)N)NC(=O)C(NC(=O)[C@@H]1CCN1C(=O)[C@@H](CCCCN)NC(=O)CN(CCN(CCN(CC(=O)O)CC(=O)O)CC(=O)O)CC(=O)O)C1CCN(C(=N)N)CC1)C(C)(C)C)C(=O)O (stereo partly drawn) [DTPA-DLys-AzeCA-Gly(PipAm)-Arg-Pro-Tyr-tBuGly-Leu-OH] ({DTPA}-[dK][Aze][ξGly(4-Pip(1-amidino))]RPY[Tle]L-OH) | 79.5% | 49.8% | 24 nM | – |
| CC(C)(C)[C@H](NC(=O)[C@H](Cc1ccc(O)cc1)NC(=O)[C@@H]1CCCN1C(=O)[C@H](CCCNC(=N)N)NC(=O)C(NC(=O)[C@@H]1CCCN1C(=O)[C@@H](CCCCN)NC(=O)CN(CCN(CCN(CC(=O)O)CC(=O)O)CC(=O)O)CC(=O)O)C1CCN(C(=N)N)CC1)C(=O)N[C@@H](CC1CC1)C(=O)O (stereo partly drawn) [DTPA-DLys-Pro-Gly(PipAm)-Arg-Pro-Tyr-tBuGly-Cpa-OH] ({DTPA}-[dK]P[ξGly(4-Pip(1-amidino))]RPY[Tle][Ala(cPr)]-OH) | 88.1% | 73.6% | 290 nM | – |
| CC(C)C[C@H](NC(=O)[C@@H](NC(=O)[C@H](Cc1cccc(O)c1)NC(=O)[C@@H]1CCCN1C(=O)[C@H](CCCNC(=N)N)NC(=O)C(NC(=O)[C@@H]1CCCN1C(=O)[C@@H](CCCCN)NC(=O)CN(CCN(CCN(CC(=O)O)CC(=O)O)CC(=O)O)CC(=O)O)C1CCN(C(=N)N)CC1)C(C)(C)C)C(=O)O (stereo partly drawn) [DTPA-DLys-Pro-Gly(PipAm)-Arg-Pro-mTyr-tBuGly-Leu-OH] ({DTPA}-[dK]P[ξGly(4-Pip(1-amidino))]RP[mTyr][Tle]L-OH) | 84.4% | 57.8% | 300 nM | – |
| DTPA-DLys-Pro-Aba(Apy)-Aba(Apy)-Pro-Tyr-Ile-Leu-OH ({DTPA-dK-Pro-Aba(Apy)-Aba(Apy)}-PYIL-OH; reading uncertain) | – | – | > 10000 nM | – |
| CC(C)C[C@H](NC(=O)[C@@H](NC(=O)[C@H](Cc1ccc(O)cc1)NC(=O)[C@@H]1CCCN1C(=O)[C@H](CCCNC(=N)N)NC(=O)[C@H](CCC1CCN(C(=N)N)CC1)NC(=O)[C@@H]1CCCN1C(=O)[C@@H](CCCCN)NC(=O)CN(CCN(CCN(CC(=O)O)CC(=O)O)CC(=O)O)CC(=O)O)C(C)(C)C)C(=O)O [DTPA-DLys-Pro-homoAla(PipAm)-Arg-Pro-Tyr-tBuGly-Leu-OH] ({DTPA}-[dK]P[Abu(1-amidino-4-piperidyl)]RPY[Tle]L-OH) | 84.3% | 71.3% | – | – |
| CC(C)C[C@H](NC(=O)[C@@H](NC(=O)[C@@H](Cc1ccc(O)cc1)NC(=O)[C@@H]1CCCN1C(=O)[C@H](CCCNC(=N)N)NC(=O)C(NC(=O)[C@@H]1CCCN1C(=O)[C@@H](CCCCN)NC(=O)CN(CCN(CCN(CC(=O)O)CC(=O)O)CC(=O)O)CC(=O)O)C1CCN(C(=N)N)CC1)C(C)(C)C)C(=O)O (stereo partly drawn) [DTPA-DLys-Pro-Gly(PipAm)-Arg-Pro-DTyr-tBuGly-Leu-OH] | 98.9% | 98.3% | – | – |
| CC[C@H](C)[C@H](NC(=O)[C@H](Cc1ccc(O)cc1)NC(=O)[C@@H]1CCCN1C(=O)[C@H](CCCNC(=N)N)NC(=O)[C@H](CCCNC(=N)N)NC(=O)CN(CCN(CCN(CC(=O)O)CC(=O)O)CC(=O)O)CC(=O)O)C(=O)N[C@@H](CC(C)C)C(=O)O [In-111-DTPA-R-R-P-Y-I-L, metal not drawn, reference compound] | – | – | – | remaining at 4 h ([1]; 37EC): 1.6%; HPLC Evaluation of Serum Stability at 37EC, Serum, t = 0 [1]: 92%; HPLC Evaluation of Urine Stability at 37EC, Urine, t = 0 ([2]; rat urine): 96.7%; remaining at 4 h [2, 3]: 13%; remaining at 4 h ([2]; Table 4, rat urine, read-out: Urine Stability, Urine (t = 4 h)): 14% |
| CC[C@H](C)[C@H](NC(=O)[C@H](Cc1ccc(O)cc1)NC(=O)[C@@H]1CCCN1C(=O)[C@H](CCCNC(=N)N)NC(=O)C(CCc1ccnc(N)n1)NC(=O)[C@@H]1CCCN1C(=O)[C@@H](CCCCN)NC(=O)CN(CCN(CCN(CC(=O)O)CC(=O)O)CC(=O)O)CC(=O)O)C(=O)N[C@@H](CC(C)C)C(=O)O (single isomer, unassigned) [In-111-DTPA-DK-P-Aba(Apy)-R-P-Y-J-L, metal not drawn] | – | – | – | remaining at 4 h ([1]; 37EC): 4.3%; HPLC Evaluation of Serum Stability at 37EC, Serum, t = 0 [1]: 96.9%; HPLC Evaluation of Urine Stability at 37EC, Urine, t = 0 ([2]; rat urine): 95.6%; remaining at 4 h [2, 3]: 6% |
